{"source": "patent US10975116B2", "about": "“Methods of treating and preventing gastrointestinal motility disorders using aminosterols” (Enterin, Inc., priority 2013, dated 2021)", "assay": "Recovery of squalamine from stool after oral dose (thin layer chromatography)", "assay_type": "in vivo, human", "settings": "200 mg oral; all stool collected for 6 days; 60% acetonitrile/1% HCl extraction", "protocol": "200 mg of squalamine was administered to a human […] as in the first example. All stool was collected for 6 days following administration. Stool was then extracted with 60% acetonitrile and 1% HCl overnight. The supernatant was collected and the presence of squalamine assessed by thin layer chromatography following published procedures. Approximately 80% of the dose could be recovered from the stool.", "data": [{"substance": "squalamine", "values": [{"measurement": "dose recovered from the stool", "result": "Approximately 80%"}]}]}
